The record followed here is patent US20140128412A1, “COMBINATION OF AN ANT[…] AN ANTI-INFLAMMATORY AGENT” (priority 2011, published 2014).

What all share (assay type): in vivo, human
For one assay, the system named is plasma BDNF. Briefly: Plasma BDNF level by ELISA in the double-blind clinical trial. The following applies: schizophrenic patients, after 11 weeks of treatment; FIG. 3D. The source says:
(§1) One hundred and thirty-seven Han Chinese schizophrenic patients and 67 Han Chinese healthy controls (age range: 20-59 years old) were recruited from the Department of Psychiatry at National Cheng Kung University Hospital and the National Defense Medical Center. All patients were screened for being used. The Chinese version of the SADS-L, which has good reliability and validity, was used to screen all participants for psychiatric conditions and whether they fit the DSM-IV diagnostic criteria for schizophrenia without any comorbidity. […]
(§2) Ten milliliters of whole blood was drawn and collected from each participant's antecubital vein at the screening visit (V), 0, 1, 2, 4, 6, 8, and 11 weeks. […] Plasma cytokine, CRP and BDNF concentrations were quantified using enzyme-linked immunosorbent assays (ELISA). A kit (Quantikine Human Cytokine kit; R&D Systems) and an ELISA reader (SpectraMax-M2; Molecular Devices) ELISA reader were used to analysis plasma IL-1β, TNF-α, CRP, and BDNF levels. […]

In a further assay the test system is plasma IL-1β. Briefly: Plasma IL-1β level by ELISA in the double-blind clinical trial. The following applies: schizophrenic patients, FIG. 3A.
From the text: as §1, §2

Another assay concerns plasma CRP. Briefly: Plasma CRP level by ELISA in the double-blind clinical trial. The following applies: schizophrenic patients, FIG. 3C.
From the text: One hundred and thirty-seven Han Chinese schizophrenic patients and 67 Han Chinese healthy controls (age range: 20-59 years old) were recruited from the Department of Psychiatry at National Cheng Kung University Hospital and the National Defense Medical Center. All patients were screened for being used. The Chinese version of the SADS-L, which has good reliability and validity, was used to screen all participants for psychiatric conditions and whether they fit the DSM-IV diagnostic criteria for schizophrenia without any comorbidity. Exclusion conditions were: 1) pregnant or nursing women; 2) women of childbearing potential not using adequate contraception as per investigator judgment or not willing to use contraception for the duration of study; 3) patients who had used dextromethorphan, other selective cyclooxygenase 2 inhibitors, or other anti-inflammatory medication within 1 week before the first dose of double-blind medication; 4) a major mental illness other than schizophrenia, including alcoholism and illegal substance use disorder; 5) a clinically significant medical condition, e.g., cardiac, hepatic, or renal disease with current evidence of poor control; 6) patient who had undergone electroconvulsive therapy within 4 weeks before the first dose of double-blind medication; 7) SGOT, SGPT, BUN, and creatinine levels/an SGOT, SGPT, BUN, or creatinine level greater than 3-fold the upper limit of normal. All the healthy controls were free of major and minor mental illness. […]
as §2

Another assay has as its system plasma TNF-α. Put plainly: Plasma TNF-α level by ELISA in the double-blind clinical trial. The following applies: schizophrenic patients, FIG. 3B.
From the text: One hundred and thirty-seven Han Chinese schizophrenic patients and 67 Han Chinese healthy controls (age range: 20-59 years old) were recruited from the Department of Psychiatry at National Cheng Kung University Hospital and the National Defense Medical Center. All patients were screened for being used. The Chinese version of the SADS-L, which has good reliability and validity, was used to screen all participants for psychiatric conditions and whether they fit the DSM-IV diagnostic criteria for schizophrenia without any comorbidity. Exclusion conditions were: 1) pregnant or nursing women; 2) women of childbearing potential not using adequate contraception as per investigator judgment or not willing to use contraception for the duration of study; 3) patients who had used dextromethorphan, other selective cyclooxygenase 2 inhibitors, or other anti-inflammatory medication within 1 week before the first dose of double-blind medication; 4) a major mental illness other than schizophrenia, including alcoholism and illegal substance use disorder; 5) a clinically significant medical condition, e.g., cardiac, hepatic, or renal disease with current evidence of poor control; 6) patient who had undergone electroconvulsive therapy within 4 weeks before the first dose of double-blind medication; 7) SGOT, SGPT, BUN, and creatinine levels/an SGOT, SGPT, BUN, or creatinine level greater than 3-fold the upper limit of normal. All the healthy controls were free of major and minor mental illness. All research involving humans was reviewed and approved by the National Chung Kung University and National Defense Medical Center Institutional Review Boards before the study began.
This study was a double-blind, stratified, randomized, parallel-group, two-center clinical trial. The treatment was risperidone plus a double-blind add-on of randomly assigned DM or a placebo. Participants began the study immediately after they had been screened for eligibility (screening visit: V). The pre-treatment study phase consisted of a 7-day (V to 0 week) antipsychotic switch-over period for patients (patient hospitalized) who were taking oral antipsychotic medication other than risperidone alone at the screening, or who had been using depot medication for an entire cycle before the screening. […]
as §2

`Cc1nc2n(c(=O)c1CCN1CCC(c3noc4cc(F)ccc34)CC1)CCCC2` [Risp only, risperidone]: in the assay on plasma BDNF, the “change in plasma BDNF levels” value was “did not change”. In the assay on plasma IL-1β (after 11 weeks of treatment, risperidone 1-6 mg/day, DM 60 mg/day), the “change in plasma IL-1β levels” value was “significant decrease”. Besides, in the assay with plasma IL-1β, the “time after which plasma IL-1β level fell” value is 8 weeks. Besides, the “plasma CRP level at start (first value of 'from ... to')” value in the assay on plasma CRP (before add-on treatment, mean±SEM) turned out to be 2576.0±484.0. In the assay on plasma CRP (end of treatment, mean±SEM), the “plasma CRP level at end (second value of 'from ... to')” value is recorded as 1946.0±369.6. Also, the “change in plasma CRP levels” value in the assay on plasma CRP (over the study) was “tended to decrease but were not significantly different”. Further, the “plasma TNF-α levels at the end of the study” value in the assay with plasma TNF-α (end of study (11 weeks) vs visit) is given as “significantly higher”. Moreover, the “course of plasma TNF-α levels during the study” value with plasma TNF-α (visit to 11 weeks) was “rose significantly”. For the same molecule, in the assay with plasma TNF-α, the “time after which plasma TNF-α levels rose significantly” value was 4 weeks and the “time of peak plasma TNF-α level” value was 6 weeks.
